This is an account of results in patent US8168659B2, “1, 5-diphenyl-3-benzylamino-1, 5-dihydropyrrolidin-2-one as CB1 receptor modulators” (Eli Lilly and Company, priority 2006, dated 2012).

A word on the Kb: it is the equilibrium dissociation constant of an antagonist, usually derived from a functional assay. The term EC50 denotes the concentration that produces a half-maximal response.

Structures are written as SMILES. Where a name gives a salt, the structure may show the parent alone. Read-outs that look alike come from different tables or passages of the source. Some results are limits rather than exact numbers.

The target of series [1] is T1, hCB1 (Homo sapiens, UniProt P21554). As to the kind of experiment: hCB1 SPA GTPγ35S Sf9 membranes, antagonist. It counts as biochemical. Details: purchased Applied Cell Sciences, Gaithersburg, Md; PerkinElmer Life Sciences, Boston, Mass; host or cells: Sf9 insect cells (recombinant expression), membranes. Conditions: hCB1 SPA GTPγ35S Sf9 Mem 22.7 ug protein/well Antagonist; read-out: Inverse Agonist Potency CB1 (Kb). The protocol: (§1) Antibody-Capture SPA GTP-γ-^35S Binding
T1 sequence (P21554 whole entry): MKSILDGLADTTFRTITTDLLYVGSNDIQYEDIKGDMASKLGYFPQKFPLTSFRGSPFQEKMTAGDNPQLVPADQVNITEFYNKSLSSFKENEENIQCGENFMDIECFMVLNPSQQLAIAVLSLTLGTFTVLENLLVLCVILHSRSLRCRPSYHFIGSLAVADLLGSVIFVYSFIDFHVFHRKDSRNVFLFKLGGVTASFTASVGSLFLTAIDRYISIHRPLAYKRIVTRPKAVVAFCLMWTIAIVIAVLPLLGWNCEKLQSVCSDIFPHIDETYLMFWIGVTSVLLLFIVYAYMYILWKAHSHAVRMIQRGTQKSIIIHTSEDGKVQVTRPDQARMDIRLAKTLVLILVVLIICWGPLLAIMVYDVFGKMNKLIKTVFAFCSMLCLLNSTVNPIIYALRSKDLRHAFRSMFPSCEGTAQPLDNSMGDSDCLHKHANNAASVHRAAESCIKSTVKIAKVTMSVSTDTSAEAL
(§2) Test exemplified compounds. Measure GTP-γ^35S binding in a 96 well format using a modified antibody capture technique previously described (DeLapp et al. 1999). […] Perform antagonist dose responses in the presence of a saturating dose of full agonist (methanandamide). Add a mixture containing 0.27% Nonidet P40 detergent (Roche, Indianapolis, Ind.), anti-Gi antibody (final dilution of 1:300; Covance, Princeton, N.J.), and 1.25 mg anti-rabbit antibody scintillation proximity assay beads (GE Healthcare, Piscataway, N.J.) and seal the plates and incubate for an additional 3 hours. Centrifuge the plates at 700×g for 10 minutes using a Beckman GS-6R centrifuge and count for 1 minute per well using a Wallac MicroBeta TriLux scintillation counter (PerkinElmer, Boston, Mass.).
(§3) To analyze data, first subtract background from all wells. Determine percent agonist efficacy by normalizing agonist/inverse agonist dose response data to a full agonist (methanandamide) response. Calculating antagonist percent inhibition data by normalizing to results generated with a saturating concentration of methanandamide. Analyze the data using a 4-parameter logistic reduced fit with Activity Base and XLFit3 (IDBS, Emeryville, Calif.). Determine Kb values using a modification of the Cheng-Prusoff relationship: Kb=IC50/(1+[agonist]/EC50) where IC50 is determined from a four parameter fit of displacement curves, [agonist]=EC50 of full agonist, and EC50 is determined from a four parameter fit of a full agonist concentration response curve (Cheng and Prusoff 1973). Calculate mean Kb values as a mean of at least three independent determinations±standard error of the mean (SEM).

The target of series [2] is T2, Human CB2 (Homo sapiens, UniProt P34972).
T2 construct: purchased Applied Cell Sciences, Gaithersburg, Md; PerkinElmer Life Sciences, Boston, Mass; host or cells: Sf9 insect cells (recombinant expression), membranes
T2 sequence (P34972 whole entry): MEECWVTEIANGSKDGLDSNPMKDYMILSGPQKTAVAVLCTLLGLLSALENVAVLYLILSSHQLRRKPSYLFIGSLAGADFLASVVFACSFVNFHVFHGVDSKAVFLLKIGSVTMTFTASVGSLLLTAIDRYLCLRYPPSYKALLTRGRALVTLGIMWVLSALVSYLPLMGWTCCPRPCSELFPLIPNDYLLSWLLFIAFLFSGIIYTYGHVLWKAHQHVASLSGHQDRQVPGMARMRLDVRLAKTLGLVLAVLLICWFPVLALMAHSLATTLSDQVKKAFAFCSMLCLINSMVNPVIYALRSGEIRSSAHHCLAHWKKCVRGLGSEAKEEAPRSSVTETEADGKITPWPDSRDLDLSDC
As to the kind of experiment: Antibody-capture SPA GTP-γ-35S binding, antagonist/inverse agonist, Sf9 cell membranes. It counts as biochemical. The protocol: as §1
(§4) Test exemplified compounds. Measure GTP-γ^35S binding in a 96 well format using a modified antibody capture technique previously described (DeLapp et al. 1999). Briefly incubate, CHO or Sf9 cell membranes expressing CB1 or CB2, respectively (Applied Cell Sciences, Gaithersburg, Md.; PerkinElmer Life Sciences, Boston, Mass.); prepare as previously described (DeLapp et al., 1999), exemplified compounds and […] GTP-γ-^35S (PerkinElmer Life Sciences, Boston, Mass.) for 30 minutes (incubate all at room temperature) in GTP-binding assay buffer (20 mM Hepes, 100 mM NaCl, 5 mM MgCl2, pH 7.4). Perform antagonist dose responses in the presence of a saturating dose of full agonist (methanandamide). Add a mixture containing 0.27% Nonidet P40 detergent (Roche, Indianapolis, Ind.), anti-Gi antibody (final dilution of 1:300; Covance, Princeton, N.J.), and 1.25 mg anti-rabbit antibody scintillation proximity assay beads (GE Healthcare, Piscataway, N.J.) and seal the plates and incubate for an additional 3 hours. Centrifuge the plates at 700×g for 10 minutes using a Beckman GS-6R centrifuge and count for 1 minute per well using a Wallac MicroBeta TriLux scintillation counter (PerkinElmer, Boston, Mass.).
as §3

A further series in a line: Bioavailability rat. In kind it is in vivo. The source says: (§5) Methods for accessing bioavailabilty are well appreciated in the art. One such reference is Medicinal Research Reviews Vol 21 No. 5 382-396 (2001).
The nature of the next series: Bioavailability dog. It counts as in vivo.
Text: as §5

The subject of a further series is NIH-Swiss mice. As to the kind of experiment: Forced swim test (FST). In kind it is in vivo. Particulars: minimum effective dose, decrease in immobility time. On the procedure: Receive NIH male Swiss mice (Harlan Sprague-Dawley, weigh 20-25 g) 7-10 days prior to testing. House 12 mice/cage. Test animals that weigh 25-30 g. On the day of test, bring animals to the testing room at least 1 hr prior to dosing, when doing starts, 6-8 min. intervals between each dosing with mouse receiving either vehicle or exemplified compounds by p.o., and then put it into a clean cage afterwards (4 mice/cage). Depending on pretreatment time, start the test accordingly.
Mice FST: Place NIH-Swiss mice in clear plastic cylinders (diameter: 10 cm; height: 25 cm) filled to 6 cm with 22-25° C. water for six min. Record the duration of immobility during the last 4 min. of the six-minute trial. A mouse is regarded as immobile when floating motionless or making only those movements necessary to keep its head above the water.
Copy the data-immobility (second) into JMP data sheet, and analyze by ANOVA-Dunnett's test. Record the minimum effective dose (MED) as the lowest dose of compound at which statistically significant decrease in immobility time is observed versus a vehicle control.

In series [3] the target is T2, Human CB2. The experiment in a line: Agonist GTP-binding, Sf9 membranes. In kind it is biochemical. On the procedure:
as §1
Test exemplified compounds. Measure GTP-γ^35S binding in a 96 well format using a modified antibody capture technique previously described (DeLapp et al. 1999). Briefly incubate, CHO or Sf9 cell membranes expressing CB1 or CB2, respectively (Applied Cell Sciences, Gaithersburg, Md.; PerkinElmer Life Sciences, Boston, Mass.); prepare as previously described (DeLapp et al., 1999), exemplified compounds and […] GTP-γ-^35S (PerkinElmer Life Sciences, Boston, Mass.) for 30 minutes (incubate all at room temperature) in GTP-binding assay buffer (20 mM Hepes, 100 mM NaCl, 5 mM MgCl2, pH 7.4). Perform antagonist dose responses in the presence of a saturating dose of full agonist (methanandamide). […]
To analyze data, first subtract background from all wells. […] Determine Kb values using a modification of the Cheng-Prusoff relationship: Kb=IC50/(1+[agonist]/EC50) where IC50 is determined from a four parameter fit of displacement curves, [agonist]=EC50 of full agonist, and EC50 is determined from a four parameter fit of a full agonist concentration response curve (Cheng and Prusoff 1973). […]

The target in series [4] is T1, hCB1. As to the kind of experiment: Agonist GTP-binding, Sf9 membranes. In kind it is biochemical. Also on record: purchased Applied Cell Sciences, Gaithersburg, Md; PerkinElmer Life Sciences, Boston, Mass; host or cells: Sf9 insect cells (recombinant expression), membranes. On the procedure:
as §1, §2, §3

Series [5] has as its target T1, hCB1. As to the kind of experiment: Antibody-capture SPA GTP-γ-35S binding, antagonist/inverse agonist, CHO cell membranes. In kind it is biochemical. The protocol: as §1, §4, §3
Background: Binding of GTPγS marks nucleotide exchange on a G protein.

In the next series the target is T3, Rat CB1 (Rattus norvegicus, UniProt P20272).
T3 construct: purchased Applied Cell Sciences, Gaithersburg, Md; PerkinElmer Life Sciences, Boston, Mass; host or cells: CHO cells (recombinant expression), membranes
T3 sequence (P20272 whole entry): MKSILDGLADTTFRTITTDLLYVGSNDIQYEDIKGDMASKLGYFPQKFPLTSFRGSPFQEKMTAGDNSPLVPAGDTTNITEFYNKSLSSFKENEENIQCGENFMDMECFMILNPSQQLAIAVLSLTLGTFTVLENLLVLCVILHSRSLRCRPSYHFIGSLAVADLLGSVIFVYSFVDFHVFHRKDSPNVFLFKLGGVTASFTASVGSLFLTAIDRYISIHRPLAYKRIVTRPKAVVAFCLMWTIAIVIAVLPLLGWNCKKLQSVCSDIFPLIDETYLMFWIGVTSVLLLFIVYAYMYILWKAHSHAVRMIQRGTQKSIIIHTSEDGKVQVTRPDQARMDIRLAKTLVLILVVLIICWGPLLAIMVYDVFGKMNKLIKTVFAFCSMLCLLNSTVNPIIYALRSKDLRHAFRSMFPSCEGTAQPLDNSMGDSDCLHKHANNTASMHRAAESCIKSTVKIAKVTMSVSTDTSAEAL
The series is described as above. In kind it is biochemical. On the procedure: as §1, §4, §3

The mark [6] stands for this setting: Antibody-capture SPA GTP-γ-35S binding, human CB2, read-out: Inverse Agonist Potency CB2 (Kb).

Take `CC(C)(N[C@H]1C[C@H](c2ccccc2)N(c2ccc(OC(F)(F)F)cc2)C1=O)c1ccc(C(F)(F)F)nc1` [Example 44, (3S,5R)-3-[1-Methyl-1-(6-trifluoromethyl-pyridin-3-yl)-ethylamino]-5-phenyl-1-(4-trifluoromethoxy-phenyl)-pyrrolidin-2-one]: the antagonist equilibrium constant (Kb) worked out at 72.7 nM on hCB1 [1] and 4030 nM on Human CB2 [2] (setting [6]).

Regarding `Cc1cccc([C@H]2C[C@@H](NC(C)(C)c3ccc(C(F)(F)F)nc3)C(=O)N2c2ccc(OC(F)(F)F)cc2)c1` [Example 1, (3R,5R)-3-[1-Methyl-1-(6-trifluoromethyl-pyridin-3-yl)-ethylamino]-5-(m-tolyl)-1-(4-trifluoromethoxy-phenyl)-pyrrolidin-2-one tosylate], in the series “Bioavailability rat”, the “Bioavail. Rat” value is listed as 7%. Moreover, the Kb is 0.91 nM on hCB1 [1] and 390 nM at Human CB2 [2] (setting [6]). Besides, the “Bioavail. Dog” value in the series “Bioavailability dog” turned out to be 36%.

Turning to `CC(C)(N[C@@H]1C[C@H](c2cccc(OC(F)(F)C(F)F)c2)N(c2ccc(C(F)(F)F)cc2)C1=O)c1ccc(C(F)(F)F)nc1` [Example 40, (3R,5R)-3-[1-Methyl-1-(6-trifluoromethyl-pyridin-3-yl)-ethylamino]-5-[3-(1,1,2,2-tetrafluoro-ethoxy)-phenyl]-1-(4-trifluoromethyl-phenyl)-pyrrolidin-2-one], the “Bioavail. Rat” value in “Bioavailability rat” came to 77%. For the same molecule, the Kb was 0.71 nM on hCB1 [1] and greater than 6900 nM at Human CB2 [2] (setting [6]). Moreover, the “Bioavail. Dog” value in the series “Bioavailability dog” is given as 38%.

With `CC(C)(N[C@@H]1C[C@H](c2ccccc2)N(c2ccc(OC(F)(F)F)cc2)C1=O)c1ccc(C(F)(F)F)nc1.Cc1ccc(S(=O)(=O)O)cc1` [Example 49, (3R,5R)-3-[1-Methyl-1-(6-trifluoromethyl-pyridin-3-yl)-ethylamino]-5-phenyl-1-(4-trifluoromethoxy-phenyl)-pyrrolidin-2-one tosylate], the “Forced Swim Test (MED, mg/kg, po)” value in the series on NIH-Swiss mice was found to be 3 mg/kg. The “Bioavail. Rat” value in the series “Bioavailability rat” is 36%. Further, the “Agonist Efficacy %” value at Human CB2 [3] (normalized to full agonist methanandamide) is given as 0%; at hCB1 [4] (Human CB1, Sf9 membranes, normalized to full agonist methanandamide) it was −38.3 ± 1.0%. Also, the EC50 at Human CB2 [3] (read-out: Agonist Potency EC50) is greater than 10000 nM; at hCB1 [4] (Human CB1, Sf9 membranes, read-out: Agonist Potency EC50) it was 0.81 ± 0.19 nM. The “agonist efficacy at the human CB1 receptor (inverse agonism), in words” value at hCB1 [4] (human CB1, basal constitutive activity) is listed as “less than zero”. Besides, the Kb on hCB1 [1] stood at 2.6 nM; at hCB1 [5] (Human CB1 (CHO cells), GTP binding, mean ± SEM, read-out: Inverse Agonist Potency [Kb (nM)]), 0.226 ± 0.01 nM; at Rat CB1 (Rat CB1 (CHO cells), GTP binding, mean ± SEM, read-out: Inverse Agonist Potency [Kb (nM)]), 0.264 ± 0.02 nM; on Human CB2 [2] (Human CB2 (Sf9 cells), GTP binding, mean ± SEM, read-out: Inverse Agonist Potency [Kb (nM)]), 587 ± 191 nM. Besides, the “CB1 antagonism/inverse agonism, in words” value at hCB1 [5] (human CB1 receptors) and on Rat CB1 (rat CB1 receptors) was “potent” each time. In “Bioavailability dog”, the “Bioavail. Dog” value was 40%. For the same molecule, on Human CB2 [2] (human CB2 receptors), the “CB2 antagonism, in words” value is recorded as “low antagonism”.

For the molecule `CC(C)(N[C@H]1C[C@@H](c2ccccc2)N(c2ccc(OC(F)(F)F)cc2)C1=O)c1ccc(C(F)(F)F)nc1` [Example 4, (3S,5S)-3-[1-Methyl-1-(6-trifluoromethyl-pyridin-3-yl)-ethylamino]-5-phenyl-1-(4-trifluoromethoxy-phenyl)-pyrrolidin-2-one tosylate], the results for the Kb at hCB1 [1] and on Human CB2 [2] (setting [6]) were 107 nM and greater than 7230 nM, respectively.

Regarding `CC(C)(N[C@@H]1C[C@H](c2cccc(OC(F)(F)C(F)F)c2)N(c2ccc(Cl)cc2)C1=O)c1ccc(C(F)(F)F)nc1` [Example 41, (3R,5R)-3-[1-Methyl-1-(6-trifluoromethyl-pyridin-3-yl)-ethylamino]-5-[3-(1,1,2,2-tetrafluoro-ethoxy)-phenyl]-1-(4-chloro-phenyl)-pyrrolidin-2-one], the “Bioavail. Rat” value in “Bioavailability rat” is given as 36%. In addition, the antagonist equilibrium constant (Kb) was 0.91 nM at hCB1 [1] and greater than 14200 nM at Human CB2 [2] (setting [6]). For the same molecule, in the series “Bioavailability dog”, the “Bioavail. Dog” value worked out at 47%.

Turning to `CC(F)(F)c1cccc([C@H]2C[C@@H](NC(C)(C)c3ccc(C(F)(F)F)nc3)C(=O)N2c2ccc(OC(F)(F)F)cc2)c1` [Example 32B, (3R,5R)-3-[1-Methyl-1-(6-trifluoromethyl-pyridin-3-yl)-ethyl-amino]-5-[3-(1,1-difluoro-ethyl)-phenyl]-1-(4-trifluoromethoxy-phenyl)-pyrrolidin-2-one], the antagonist dissociation constant (Kb) on hCB1 [1] was 2.38 nM; at Human CB2 [2] (setting [6]) it was greater than 4000 nM.
